Experimental data reported in US11186603B2, “Heparan sulfate glycomimetic compounds and their pharmaceutical and cosmeceutical uses” (VICTORIA LINK LIMITED, priority 2017, dated 2021).
Where “and” joins values, the source holds several entries; their conditions need not be identical. Equal entries are not always repeated. Where two headings read alike, the source gives them in different places.

Key:
[1] = tested on: human dermal fibroblast cell line, CRL2071; experiment: Production of collagen type I (ELISA); assay type: cell-based
Method: (§1) Cells from the human dermal fibroblast cell line, CRL2071 (passages 12-14), obtained from normal breast skin of a person, were allowed to attach for 6-8 hours before the addition of the test compounds. After 72 h of exposure to the test articles the media was removed, cells counted and the cell-associated fraction extracted. The media and cell-associated fraction were analysed for the concentration of collagen type I using a Chondrex Human type I Collagen Detection Kit ELISA (Cat #6021).
After complete dissolution the solutions were sterile filtered through a […] syringe filter and kept at 4° C. until use. Prior to each experiment dilutions were freshly prepared by diluting to 100 nM, 1 μM or 10 μM in cell-specific media.
(§2) The test compounds, positive controls and no treatment media were added to the flasks (2.5 ml/flask) and cells were incubated for 72 h before removal of the supernatant. After removal of the supernatant, cell monolayers were trypsinsed with 2.5 ml of 0.025% trypsin/[…] in PBS to each flask. After cell detachment (7-10 min), 1 ml of the cell/trypsin mixture was added to a 20 ml counting vial containing 9 ml of normal saline. The cells were quantitated with a Coulter Counter Z2.
(§3) In some treatments cells were found floating. They were collected, counted and subjected to viability testing using 1% trypan blue staining. The remaining 1.5 ml of trypsin/cell mixture was sonicated with a Branson tip-probed sonicator for 1 min, setting 6 before centrifugation at 10,000 rpm for 10 min. The supernatant was removed and used in the collagen ELISA for the quantitation of cell-associated collagen.

[2] = molecular target: T1, cellular tyrosinase, human primary epidermal melanocyte cell line (PCS-200-013) (Homo sapiens, UniProt P14679)
T1 sequence (P14679 19-529): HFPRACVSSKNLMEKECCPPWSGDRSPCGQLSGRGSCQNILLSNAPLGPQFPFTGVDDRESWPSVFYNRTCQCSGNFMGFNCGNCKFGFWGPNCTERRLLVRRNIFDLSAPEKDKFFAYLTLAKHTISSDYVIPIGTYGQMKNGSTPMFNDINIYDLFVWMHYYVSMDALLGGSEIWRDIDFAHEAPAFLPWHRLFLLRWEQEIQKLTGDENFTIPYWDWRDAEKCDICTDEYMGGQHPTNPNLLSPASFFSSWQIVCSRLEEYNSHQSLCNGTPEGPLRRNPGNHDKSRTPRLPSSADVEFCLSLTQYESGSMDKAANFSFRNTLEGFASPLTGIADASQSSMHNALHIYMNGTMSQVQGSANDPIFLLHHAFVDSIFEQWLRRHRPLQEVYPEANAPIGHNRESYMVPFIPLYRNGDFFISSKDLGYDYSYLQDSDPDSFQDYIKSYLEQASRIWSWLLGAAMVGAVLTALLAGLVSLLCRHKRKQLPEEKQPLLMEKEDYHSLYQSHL

[3] = tested on: testicular hyaluronidase; experiment: Inhibition of hyaluronidase (turbidimetric); assay type: biochemical
Method: The heparanase inhibitors were incubated with testicular hyaluronidase in the presence of hyaluronan and after incubation the amount of hyaluronic acid remaining was quantitated. Hyaluronidase activity was measured according to the method of Tolksdorf [Tolksdorf, S. & McCready, M. H., The turbometric determination of hyaluronidase, The Journal of Laboratory and Clinical Medicine, 1949, 34(1):74-89]. Hyaluronic acid is measured by its ability to form turbidity with an acid albumin solution. […] One unit is based on the change in absorbency (turbidity) at 540 nm of an internal USP standard. All tubes were placed in a boiling water bath for 5 min and then cooled to room temperature. On cooling 9.0 ml of albumin reagent was added and tubes were allowed to stand for 10 min. Readings of absorbance at 540 nm in a Pharmacia Novatec Model II were taken. The A540nm was plotted versus the hyaluronic acid concentration (mg) to form a standard curve.

[4] = tested on: human dermal fibroblast cell line, CRL2071; experiment: Production of hyaluronan (ELISA); assay type: cell-based; details: 72 h; for ng Hyaluronan/1 × 10^6 cells (Mean ± SD): liberated hyaluronan (>6400Da); for Hyaluronan as % of No Treatment Control (Mean ± SD): liberated
Method: as §1, with “hyaluronan” for “collagen type I”, “Hyaluronan” for “Chondrex Human type I Collagen”, “ELISA.” for “ELISA (Cat #6021).”
as §2
as §3, with “hyaluronan” for “collagen”, “hyaluronan.” for “collagen.”

[5] = cell-associated, 10 μg/ml, 72 h
[6] = cell-associated, 20 ng/ml, 72 h

For C=C[C@@](C)(/C=C/c1ccc(O)cc1)CCC=C(C)C [Bakuchiol, reference compound], the “Collagen as % of No Treatment Control (Mean ± SD), Cell-associated” value ([1]; cell-associated, 5 μg/ml, 72 h) was 1,085 ± 60%, the “μg collagen (Mean ± SD), Cell-Associated Collagen Type 1” value ([1]; cell-associated, 5 μg/ml, 72 h) was 0.28 ± 0.02 µg and the “Collagen as % of No Treatment Control (Mean ± SD), Cell-associated” value [1, 5] was 600 ± 348%. The “μg collagen (Mean ± SD), Cell-Associated Collagen Type 1” value [1, 5] was 0.29 ± 0.01 µg, the “Collagen as % of No Treatment Control (Mean ± SD), Liberated” value ([1]; 5 μg/ml, 72 h) was 43 ± 17% and the “μg collagen (Mean ± SD), Liberated Collagen Type 1” value ([1]; 5 μg/ml, 72 h) was 0.02 ± 0.01 µg. The “Collagen as % of No Treatment Control (Mean ± SD), Liberated” value ([1]; 10 μg/ml, 72 h) was 357 ± 20% and the “μg collagen (Mean ± SD), Liberated Collagen Type 1” value ([1]; 10 μg/ml, 72 h) was 0.15 ± 0.01 µg.

With O=C(CCCCCCCNC(=O)CCOCC(COCCC(=O)NCCCCCCCC(=O)NCCCCCCOC1OC(COS(=O)(=O)[O-])C(OS(=O)(=O)[O-])C(OS(=O)(=O)[O-])C1OS(=O)(=O)[O-])(COCCC(=O)NCCCCCCCC(=O)NCCCCCCOC1OC(COS(=O)(=O)[O-])C(OS(=O)(=O)[O-])C(OS(=O)(=O)[O-])C1OS(=O)(=O)[O-])COCCC(=O)NCCCCCCCC(=O)NCCCCCCOC1OC(COS(=O)(=O)[O-])C(OS(=O)(=O)[O-])C(OS(=O)(=O)[O-])C1OS(=O)(=O)[O-])NCCCCCCOC1OC(COS(=O)(=O)[O-])C(OS(=O)(=O)[O-])C(OS(=O)(=O)[O-])C1OS(=O)(=O)[O-].[Na+].[Na+].[Na+].[Na+].[Na+].[Na+].[Na+].[Na+].[Na+].[Na+].[Na+].[Na+].[Na+].[Na+].[Na+].[Na+] (stereo not drawn) [Compound 17d] the “inhibitory effect on tyrosinase activity (in words)” value [2] was “significant inhibitory effect on tyrosinase activity”, the “Tyrosinase inhibition as a % of the "No Treatment" control (Mean ± SD)” value ([2]; 0.1 µM) was 0 ± 0% and the “Tyrosinase inhibition as a % of the "No Treatment" control (Mean ± SD)” value ([2]; 1 μM) was 0 ± 0%. For the same molecule, the “Tyrosinase inhibition as a % of the "No Treatment" control (Mean ± SD)” value ([2]; 10 μM) was 44 ± 2%, the “Collagen as % of No Treatment Control (Mean ± SD), Cell-associated” value [1] was 3,076 ± 803% and 5,116 ± 231% and the “μg collagen (Mean ± SD), Cell-Associated Collagen Type 1” value [1] was 1.32 ± 0.35 µg and 2.20 ± 0.10 µg. For the same molecule, the “Hyaluronidase inhibition as a % of the "No Treatment" control (Mean ± SD)” value ([3]; 100 nM) was 0 ± 0%, the “Hyaluronidase inhibition as a % of the "No Treatment" control (Mean ± SD)” value ([3]; 1 μM) was 0 ± 0% and the “Hyaluronidase inhibition as a % of the "No Treatment" control (Mean ± SD)” value ([3]; 10 μM) was 23 ± 1%. For the same molecule, the “inhibition of testicular hyaluronidase (in words)” value ([3]; summary of Example 11) was “effective inhibitors of testicular hyaluronidase”.

CC1=C(/C=C/C(C)=C/C=C/C(C)=C/CO)C(C)(C)CCC1 [Retinol, reference compound] was tested, and the “ng Hyaluronan/1 × 10^6 cells (Mean ± SD)” value ([4]; 5 μg/ml) was 576 ± 0 ng Hyaluronan/1 × 10^6 cells and the “Hyaluronan as % of No Treatment Control (Mean ± SD)” value ([4]; 5 μg/ml) was 1,346 ± 0%.

With “TGF-β1: Transforming growth Factor β1, Sigma Aldrich, positive control” the “ng Hyaluronan/1 × 10^6 cells (Mean ± SD)” value ([4]; 20 ng/ml) was 507 ± 68 ng Hyaluronan/1 × 10^6 cells, the “Hyaluronan as % of No Treatment Control (Mean ± SD)” value ([4]; 20 ng/ml) was 1,186 ± 159% and the “Collagen as % of No Treatment Control (Mean ± SD), Cell-associated” value [1, 6] was 719 ± 57%. The “μg collagen (Mean ± SD), Cell-Associated Collagen Type 1” value [1, 6] was 0.31 ± 0.02 µg, the “Collagen as % of No Treatment Control (Mean ± SD), Liberated” value ([1]; 20 ng/ml, 72 h) was 2,852 ± 285% and the “μg collagen (Mean ± SD), Liberated Collagen Type 1” value ([1]; 20 ng/ml, 72 h) was 1.23 ± 0.12 µg.

B1: TGF-β2: Transforming growth Factor β2, Sigma Aldrich, positive control (protein, UniProt P61812 303-414, looked up)
Transforming growth factor …: ALDAAYCFRNVQDNCCLRPLYIDFKRDLGWKWIHEPKGYNANFCAGACPYLWSSDTQHSRVLSLYNTINPEASASPCCVSQDLEPLTILYYIGKTPKIEQLSNMIVKSCKCS
B1 was tested, and the “Collagen as % of No Treatment Control (Mean ± SD), Cell-associated” value [1, 6] was 77 ± 9%, the “μg collagen (Mean ± SD), Cell-Associated Collagen Type 1” value [1, 6] was 0.03 ± 0.00 µg and the “Collagen as % of No Treatment Control (Mean ± SD), Liberated” value ([1]; 20 ng/ml, 72 h) was 446 ± 73%. The “μg collagen (Mean ± SD), Liberated Collagen Type 1” value ([1]; 20 ng/ml, 72 h) was 0.19 ± 0.03 µg.
